From article PMC11218446, “Antibacterial efficacy and membrane mechanism of action of the Serratia-derived non-ionic lipopeptide, serrawettin W2-FL10” (Microbiology Spectrum, 2024)
≈ marks a conversion by molar mass, not a printed value. Where “and” joins values, the source holds several entries; their conditions need not be identical. Identical values can stand only once.

Assays:
[1] = tested on: L. monocytogenes ATCC 13932; assay: Broth microdilution assay (OD 600 nm); assay type: cell-based, Listeria monocytogenes
Method: Serrawettin W2-FL10 (95% pure) was tested for antibacterial activity using a broth microdilution susceptibility assay ([6]), with melittin included as an antibiotic control. The serrawettin W2-FL10 was prepared in 70% MeCN to 1.00 mg/mL, from which aliquots were prepared using 70% MeCN to a concentration of 50 µg/mL or 500 µg/mL, while aliquots of melittin were prepared using analytical quality H2O to 128 µg/mL. Fifty microliters of the respective W2-FL10 aliquots or melittin were dispensed into a clear 96-well plate and a microdilution (in 70% MeCN for W2-FL10 or analytical quality H2O for melittin) was performed within the plate. The plate was air-dried to remove the solvent and placed in a desiccator with chloroform for 20 min for sterilization.
All the cultures (inoculated into 5 mL MHB, or 5 mL TSB for Listeria and Enterococcus strains) were incubated at 37°C to reach an optical density (OD) of 0.4 at 600 nm (∼10^7 CFU/mL). A 1:20 dilution of the test strain (final concentration of ∼10^5 CFU/mL) was prepared and 100 µL was dispensed into each well (final concentration of W2-FL10 at 1.5–125 µg/mL and melittin at 2–32 µg/mL). Sterile broth and the OD-adjusted inoculum were included as positive controls, while sterile broth (no inoculum) was included as a negative control. The 96-well plate was incubated for 18 h at 37°C. All the tests were performed in triplicate, with independent duplicates. Following incubation, the absorbance was measured using a microtiter plate reader at 600 nm. The 50% growth inhibition concentration (IC50) was determined using GraphPad Prism version 5 for Windows [GraphPad Software, San Diego, USA (www.graphpad.com)]. A sigmodal curve with variable slope was fitted to each set of dose-repose data according to Rautenbach et al. ([17]) using equation (1):
(1) Y=bottom+(top−bottom)/1+10^logIC50×Activity slope
The “top” and “bottom” are the maximum and minimum inhibition responses, respectively, for a particular set of dose-response data, while the activity slope is related to the Hill slope of a sigmoidal binding curve ([16]). […] The MIC value was determined for each set of dose-response data as the lowest concentration, resulting in ≥90% inhibition of the target cell growth. In addition to the MIC and IC50 inhibition parameters, an inhibition concentration factor (ICF), was calculated as outlined in Rautenbach et al. ([17]). The ICF is indicative of the concentration increase from the highest concentration where no activity is observed to the MIC of a compound.

MRSA Xen 30 = assay: Membrane depolarization assay, DiSC3(5); assay type: cell-based, Staphylococcus aureus
Method: (§1) The membrane depolarization capability (ability to disrupt membrane potential) of the W2-FL10 against S. aureus ATCC 25923, S. aureus RN4220, or MRSA Xen 30 was determined using the voltage-sensitive fluorescent probe, DiSC3(5) ([20]). Briefly, black 96-well plates were prepared with W2-FL10 at 12.5 µg/mL and 25 µg/mL, while 4 and 8 µg/mL of melittin were used as a positive depolarization control, and the plates were air dried as described in the “Antibacterial activity: broth microdilution assay” section. The S. aureus strains were inoculated into MHB and grown to the mid-log phase (OD600 of 0.5–0.6). Cells were harvested by centrifugation at 3,000 rpm for 10 min and resuspended in HEPES buffer (5 mM, pH 7.4, containing 20 mM glucose; 100 mM KCl) to OD600 of 0.05. Thereafter, DiSC3(5) (stock concentration of 400 µM in 100% DMSO) was added to the cell suspension to a final concentration of 0.4 µM, and cells were incubated in the dark at room temperature for 40 min. Cell suspensions (100 µL) were then dispensed into the wells of the black 96-well plate. Sterile broth and the OD-adjusted inoculum with DiSC3(5) were included as a non-fluorescent control, sterile broth with DiSC3(5) was included as a sterility control, and melittin was included as membrane depolarization control. All the tests were performed in triplicate, with independent duplicates. Fluorometric readings of the plate were conducted at 1 min intervals over 12 min (readings began 60 s after cells were added to the plates) using a Tecan Spark at 622 nm excitation wavelength and 670 nm emission wavelength. Statistical comparison of the kinetic trends elicited by the treatment with peptide with the control (cells alone) was done using two-way ANOVA with Bonferroni’s post hoc test.

S. aureus ATCC 25923 = assay: Membrane depolarization assay, DiSC3(5); assay type: cell-based, Staphylococcus aureus
Method: as §1

three S. aureus strains = assay: Membrane permeability assay, propidium iodide, summary; assay type: cell-based, Staphylococcus aureus; conditions: discussion
Method: The membrane permeability capabilities of the W2-FL10 against the S. aureus strains were determined using PI ([56]). Briefly, black 96-well plates were prepared with W2-FL10 at 6.25, 12.5, and 25 µg/mL, while 4–16 µg/mL of melittin was used as a positive permeability control, and the plates were dried as described in the “Antibacterial activity: broth microdilution assay” section. The S. aureus strains were inoculated into MHB, grown to mid-log phase (OD600 of 0.5–0.6), and diluted to OD600 of 0.3. PI (stock concentration of 1 mg/mL in analytical quality H2O) was added to the cell suspension to a final concentration of 10 µg/mL and cells were incubated in the dark at room temperature for 20 min. Thereafter, 100 µL of OD-adjusted PI cells in the mid-log phase were dispensed into each well. Sterile broth and the OD-adjusted inoculum with PI were included as a non-fluorescent control, while sterile broth with PI was included as a sterility control, and melittin was included as membrane depolarization control. […] Fluorometric readings of the plate were conducted in 4-min intervals over 60 min (readings began ~60 s after cells were added to the plate) using a Tecan Spark at 535 nm excitation wavelength and 617 nm emission wavelength.
The leakage kinetics or PI permeabilization kinetic was assessed using a rate parameter of ΔPI fluorescence per minute. […]

[2] = Oligomer detection by ESI-HRMS; assay type: physicochemical; conditions: MaxEnt 3 mass spectrum (Fig. 1C)
Enterococcus faecium = conditions: cited from earlier work
Source text: The antimicrobial activity of the serrawettin W2-FI10 analog (i.e., C10H18O2-Leu-Ser-Thr-Phe-Ile), has been extensively investigated.

Compound: CCCCCCCC1CC(=O)N[C@H](CC(C)C)C(=O)N[C@@H](CO)C(=O)N[C@@H]([C@@H](C)O)C(=O)N[C@H](Cc2ccccc2)C(=O)N[C@@H](CC(C)C)C(=O)O1 (some centres unmarked) [W2-FL10, serrawettin W2-FL10]
- IC50 ± SD ([1]; 50% growth inhibition, sigmoidal curve fit, n = 3): 3.8 ± 0.2 (3) µg/mL
- Selectivity index ([1]; LC50 (CHO)/IC50): 7.6
- ICF (MIC/IC50)^2 ([1]; inhibition concentration factor): 2.7
- MIC ([1]; ≥90% growth inhibition, OD 600 nm, TSB, 18 h 37°C): 6.3 μg/mL and 6.3 (8.5) μg/mL
- depolarization, in words (MRSA Xen 30; 12.5 µg/mL, up to 720 s): appreciable depolarization
- time at which the DiSC3(5) fluorescent signal doubled (MRSA Xen 30; 25 µg/mL): 420 s
- increase in DiSC3(5) fluorescent signal, in words (S. aureus ATCC 25923; 12.5 µg/mL, up to 720 s (Fig. 4A)): negligible
- time at which the DiSC3(5) fluorescent signal doubled (S. aureus ATCC 25923; 25 µg/mL): 660 s
- time within which delayed leakage of PI occurred (three S. aureus strains): 30 to 45 min
- oligomers detected [2]: dimers, trimers, tetramers, and pentamers
- minimum inhibitory concentration (MIC) (Enterococcus faecium): 15.6 mg/L (≈ 21.3 µM)
